From US20110045101A1, “FUNGICIDAL SUBSTITUTED AZOLES” (E.I. Du Pont De Nemours and Company, priority 2009, published 2011)
Marks after values point to notes of the source that are not given here.

Key:
Assay type in all cases: in vivo
Conditions in all cases: 100 = 100% disease control
Botrytis cinerea = test: Test C: tomato Botrytis on tomato seedlings, sprayed the day before inoculation, visual disease rating
Outline: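 Each compound is first taken up in acetone at 3% of the final volume and then brought to the desired ppm in a 50:50 acetone–water mix with 250 ppm surfactant (polyhydric alcohol esters). Tomato seedlings receive the suspension to run-off, normally at 200 ppm, occasionally 40 ppm.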

[1] = test system: Puccinia recondita f. sp. tritici; test: Test I: wheat leaf rust on wheat seedlings, sprayed the day before inoculation, visual disease rating
Outline: (§1)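 Test rate was 200 ppm, sprayed to run-off and equal to 500 g/ha, or 40 ppm where marked. The compound was first taken up in acetone at 3% of final volume and suspended in acetone/purified water (50/50) containing 250 ppm Trem® 014.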

[2] = test system: Puccinia recondita f. sp. tritici; test: Test H: wheat leaf rust, test suspension sprayed after inoculation of wheat seedlings, visual disease rating
Outline: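 Wheat seedlings inoculated with P. recondita spores, held 24 h saturated at 20 °C, then 2 days in growth chamber at 20 °C; compound suspension (acetone/water with Trem 014) sprayed to run-off afterwards. Rated visually; 200 ppm (≈500 g/ha) unless marked *, which denotes 40 ppm.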

Septoria tritici = test: Test G: wheat leaf blotch on wheat seedlings, sprayed the day before inoculation, visual disease rating
Outline: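 Seedlings receive a protective spray of test suspension in acetone/water carrying 250 ppm surfactant, mostly at 200 ppm and at 40 ppm where marked. They are inoculated the next day, kept saturated at 24° C for 48 h, then held at 20° C for 19 days before visual scoring.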

Septoria nodorum = test: Test F: wheat glume blotch on wheat seedlings, sprayed the day before inoculation, visual disease rating
Outline: as §1

Alternaria solani = test: Test D: tomato early blight, sprayed the day before inoculation, visual disease rating
Outline: as §1

[3] = test system: Erysiphe graminis f. sp. tritici; test: Test J: wheat powdery mildew on wheat seedlings, sprayed the day before inoculation, visual disease rating
Outline: as §1

[4] = 200 ppm, 0 = no control relative to controls
[5] = 40 ppm (marked *), 0 = no control
[6] = Botrytis cinerea, 120 h, 200 ppm, 0 = no control relative to controls
[7] = Puccinia recondita, 168 h, 200 ppm, 0 = no control relative to controls
[8] = Puccinia recondita, 96 h, 200 ppm, 0 = no control relative to controls
[9] = Zymoseptoria tritici, 504 h, 200 ppm, 0 = no control relative to controls
[10] = Parastagonospora nodorum, 264 h, 200 ppm, 0 = no control relative to controls
[11] = Alternaria solani, 168 h, 200 ppm, 0 = no control relative to controls
[12] = Blumeria graminis, 168 h, 200 ppm, 0 = no control relative to controls

Row | Compound | Test C disease control rating (Botrytis cinerea; [4]) [%] | Test I disease control rating [1, 4] [%] | Test H disease control rating [2, 4] [%] | Test G disease control rating (Septoria tritici; [4]) [%] | Test F disease control rating (Septoria nodorum; [4]) [%] | Test D disease control rating (Alternaria solani; [4]) [%] | Test J disease control rating [3, 4] [%] | also measured
1 | Cc1nc(Cl)n(-c2ccc(Cl)c(F)c2)c1-c1ccnc(F)c1 [compound 323] | 100 | 100 | 70 | 100 | 0 | 99 | 99 | –
2 | COc1cc(F)c(-c2c(Cl)nc(Br)n2-c2ccc(OC(F)(F)F)cc2)c(F)c1 [compound 548] | 98 | 99 | 0 | 96 | 94 | 100 | 100 | –
3 | COc1ccc(F)c(-c2c(Br)nc(Cl)n2-c2ccc(Cl)cc2)c1F [compound 510] | 99 | 98 | 9 | 99 | 100 | 100 | 100 | –
4 | Cc1nc(C)n(-c2ccc(Cl)c(F)c2)c1-c1c(F)ccc(F)c1F [compound 415] | – | – | – | – | – | – | – | Test C disease control rating (Botrytis cinerea; [5]): 100* %; Test I disease control rating [1, 5]: 94* %; Test H disease control rating [2, 5]: 0* %; Test G disease control rating (Septoria tritici; [5]): 99* %; Test F disease control rating (Septoria nodorum; [5]): 0* %; Test D disease control rating (Alternaria solani; [5]): 100* %; Test J disease control rating [3, 5]: 98* %
5 | Fc1cccc(F)c1-n1c(-c2ccc(Cl)cc2)cnc1Cl [compound 341] | – | – | – | – | – | – | – | Test C disease control rating (Botrytis cinerea; [5]): 91* %; Test I disease control rating [1, 5]: 0* %; Test H disease control rating [2, 5]: 9* %; Test G disease control rating (Septoria tritici; [5]): 0* %; Test F disease control rating (Septoria nodorum; [5]): 0* %; Test D disease control rating (Alternaria solani; [5]): 24* %; Test J disease control rating [3, 5]: 0* %
6 | Cc1ccc(-n2c(Cl)nc(Cl)c2-c2c(F)cccc2F)nc1 [compound 577] | 100 | 100 | 97 | 100 | 87 | 100 | 100 | –
7 | CCOc1ccc(F)c(-c2c(Cl)nc(Cl)n2-c2ccc(Cl)cc2)c1F [compound 664] | 100 | 97 | 46 | 99 | 96 | 99 | 100 | –
8 | COc1ccc(F)c(-c2c(Cl)ncn2-c2ccc(C#N)cc2)c1F [compound 527] | 100 | 91 | 37 | 95 | 0 | 99 | 88 | –
9 | COc1ccc(F)c(-c2c(Cl)ncn2Cc2ccc(Cl)cc2)c1F [compound 270] | – | – | – | – | – | – | – | Test C disease control rating (Botrytis cinerea; 200 ppm, 0 = no control): 100%; Test I disease control rating ([1]; 200 ppm, 0 = no control): 99%; Test H disease control rating ([2]; 200 ppm, 0 = no control): 0%; Test G disease control rating (Septoria tritici; 200 ppm, 0 = no control): 86%; Test F disease control rating (Septoria nodorum; 200 ppm, 0 = no control): 98%; Test D disease control rating (Alternaria solani; 200 ppm, 0 = no control): 100%; Test J disease control rating ([3]; 200 ppm, 0 = no control): 96%
10 | COc1cc(OC)c(Br)c(-n2c(C)nc(Br)c2Cc2ccc(F)cc2F)c1Br [compound 477] | 9 | 75 | 0 | 0 | 0 | 0 | 0 | –
11 | COc1cc(F)c(-c2c(Cl)ncn2-c2ccc(F)c(F)c2)c(F)c1 [compound 498] | 99 | 100 | 0 | 95 | 95 | 100 | 100 | –
12 | Fc1cccc(F)c1-c1c(Cl)nc(Cl)n1-c1cccnc1Cl [compound 617] | 99 | 100 | 100 | 100 | 0 | 99 | 99 | –
13 | Fc1cccc(F)c1-c1c(Cl)nc(Cl)n1-c1ccc(Cl)nc1 [compound 592] | 100 | 100 | 100 | 96 | 100 | 100 | 100 | –
14 | N#Cc1ccc(F)c(-c2c(Cl)ncn2-c2ccc(F)cc2)c1F [compound 656] | 100 | 100 | 9 | 99 | 20 | 100 | 100 | –
15 | COc1cc(F)c(-n2c(Cl)nc(CCl)c2-c2ccc(Cl)cc2)c(F)c1 [compound 397] | – | – | – | – | – | – | – | Test C disease control rating (Botrytis cinerea; [5]): 100* %; Test I disease control rating [1, 5]: 88* %; Test H disease control rating [2, 5]: 0* %; Test G disease control rating (Septoria tritici; [5]): 94* %; Test F disease control rating (Septoria nodorum; [5]): 0* %; Test D disease control rating (Alternaria solani; [5]): 98* %; Test J disease control rating [3, 5]: 13* %
16 | COc1cc(F)c(-n2c(Cl)nc(C)c2-c2ccc(Cl)nc2)c(F)c1 [Compound 696, 2-chloro-5-[2-chloro-1-(2,6-difluoro-4-methoxyphenyl)-4-methyl-1H-imidazol-5-yl]pyridine] | – | – | – | – | – | – | – | pest or weed control at 40 ppm (Botrytis cinerea; Botrytis cinerea, 120 h, 40 ppm (marked *)): 100%; pest or weed control at 40 ppm ([1]; Puccinia recondita, 168 h, 40 ppm (marked *)): 99%; pest or weed control at 40 ppm ([2]; Puccinia recondita, 96 h, 40 ppm (marked *)): 99%; pest or weed control at 40 ppm (Septoria tritici; Zymoseptoria tritici, 504 h, 40 ppm (marked *)): 99%; pest or weed control at 40 ppm (Septoria nodorum; Parastagonospora nodorum, 264 h, 40 ppm (marked *)): 100%; pest or weed control at 40 ppm (Alternaria solani; Alternaria solani, 168 h, 40 ppm (marked *)): 100%; pest or weed control at 40 ppm ([3]; Blumeria graminis, 168 h, 40 ppm (marked *)): 100%
17 | COc1ccc(F)c(-c2c(Cl)ncn2-c2ccc(F)cc2)c1F [compound 299] | 99 | 99 | 0 | 97 | 90 | 99 | 99 | –
18 | N#CCc1nc(Br)c(-c2c(F)cccc2F)n1-c1ccc(Cl)cc1 [Compound 509, 4-bromo-1-(4-chlorophenyl)-5-(2,6-difluorophenyl)-1H-imidazole-2-acetonitrile] | – | – | – | – | – | – | – | pest or weed control at 200 ppm (Botrytis cinerea; [6]): 98%; pest or weed control at 200 ppm [1, 7]: 85%; pest or weed control at 200 ppm [2, 8]: 9%; pest or weed control at 200 ppm (Septoria tritici; [9]): 92%; pest or weed control at 200 ppm (Septoria nodorum; [10]): 0%; pest or weed control at 200 ppm (Alternaria solani; [11]): 77%; pest or weed control at 200 ppm [3, 12]: 78%
19 | COc1cc(F)c(-c2c(Cl)nc(C)n2-c2ccc(Cl)nc2)c(F)c1 [compound 739] | 100 | 100 | 100 | 100 | 100 | 100 | 100 | –
20 | Cc1nc(Cl)c(-c2c(F)ccc(C#N)c2F)n1-c1ccc(Cl)cc1 [Compound 430, 3-[4-chloro-1-(4-chlorophenyl)-2-methyl-1H-imidazol-5-yl]-2,4-difluorobenzonitrile] | – | – | – | – | – | – | – | pest or weed control at 200 ppm (Botrytis cinerea; [6]): 100%; pest or weed control at 200 ppm [1, 7]: 100%; pest or weed control at 200 ppm [2, 8]: 0%; pest or weed control at 200 ppm (Septoria tritici; [9]): 100%; pest or weed control at 200 ppm (Septoria nodorum; [10]): 100%; pest or weed control at 200 ppm (Alternaria solani; [11]): 100%; pest or weed control at 200 ppm [3, 12]: 100%
